In patent US9180111B2, “Reduction in complement activation and inflammation during tissue injury by carotenoids, carotenoid analogs, or derivatives thereof” (Cardax Pharma, Inc., priority 2005, dated 2015):

Tests used:
[1] = Determination of aqueous solubility/dispersibility; format: physicochemical
Experimental: (§1) 30.13 mg of 3 was added to 1 mL of USP-purified water. The sample was rotated for 2 hours, then centrifuged for 5 minutes. After centrifuging, solid was visible in the bottom of the tube. A 125-μL aliquot of the solution was then diluted to 25 mL. The sample was analyzed by UV/Vis spectroscopy at 436 nm, and the absorbance was compared to a standard curve compiled from 4 standards of known concentration. The concentration of the original supernatant was calculated to be 2.85 mg/mL and the absorptivity was 36.94 AU*mL/cm*mg. Slight error may have been introduced by the small size of the original aliquot.
as §1, with “Next, 30.80” for “30.13”, “9” for “3”, “411” for “436”, “29.27” for “2.85”, “2.90” for “36.94”

[2] = target: human serum albumin (HSA) (Homo sapiens, UniProt P02768); assay: Plasma-protein binding studies in vitro
Chain of human serum albumin (HSA) (P02768 25-609): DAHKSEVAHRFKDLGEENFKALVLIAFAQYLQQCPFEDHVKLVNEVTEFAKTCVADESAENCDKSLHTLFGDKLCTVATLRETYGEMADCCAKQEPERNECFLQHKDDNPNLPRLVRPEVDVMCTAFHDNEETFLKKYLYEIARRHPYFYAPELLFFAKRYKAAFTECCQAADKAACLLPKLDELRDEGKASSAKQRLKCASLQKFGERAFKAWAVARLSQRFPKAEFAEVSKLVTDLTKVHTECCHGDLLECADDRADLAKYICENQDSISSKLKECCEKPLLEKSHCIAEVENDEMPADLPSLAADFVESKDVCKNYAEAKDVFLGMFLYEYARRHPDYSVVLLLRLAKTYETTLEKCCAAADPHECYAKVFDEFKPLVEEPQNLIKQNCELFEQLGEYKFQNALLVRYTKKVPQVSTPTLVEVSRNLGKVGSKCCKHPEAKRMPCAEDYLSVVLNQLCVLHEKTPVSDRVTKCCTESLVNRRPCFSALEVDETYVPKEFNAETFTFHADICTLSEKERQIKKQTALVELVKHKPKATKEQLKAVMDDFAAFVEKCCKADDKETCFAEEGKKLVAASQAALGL

SMILES	solubility in water [1]	binding to human serum albumin [2]
CC1=C(/C=C/C(C)=C/C=C/C(C)=C/C=C/C=C(C)/C=C/C=C(C)/C=C/C2=C(C)C(=O)[C@@H](O)CC2(C)C)C(C)(C)C[C@H](O)C1=O [astaxanthin, reference compound]	insoluble in water	
CC1=C(/C=C/C(C)=C/C=C/C(C)=C/C=C/C=C(C)/C=C/C=C(C)/C=C/C2=C(C)C(=O)C(OC(=O)CCC(=O)O)CC2(C)C)C(C)(C)CC(OC(=O)CCC(=O)O)C1=O [meso-(3R,3S)-disodium disuccinate astaxanthin derivative]		bound immediately and preferentially to human serum albumin
